pEC50: −log10 of the molar value. Read-outs that look alike come from different tables or passages of the source.

Series [1] has as its system female Sprague-Dawley rats, oxazolone (OX) contact dermatitis. The series is described as follows: In Vivo Inflammation Assay (oxazolone contact dermatitis model). Also noted: key to Inflammation Assay Glucose Effect / GL *: +: the glucose level increased compared to vehicle; −: the glucose level decreased compared to vehicle. The note with it: for Inflammation Assay Glucose Effect / Inflammation Assay Anti-inflammatory Effect: rat; for Inflammation Assay Glucose Effect: glucose level compared to vehicle; for Inflammation Assay Anti-inflammatory Effect: relative to control compound; for GL *: glucose effect. On the procedure:
In Vivo Inflammation Assay
Intact adult (6 month old) female Sprague-Dawley rats are used in the oxazolone (OX) contactdermatitis model. Rats were sensitized on the ventral abdomen with OX on Day 0. On Days 7 and 9, a randomly-selected ear was challenged (same ear each time) with OX; the other was treated with vehicle. Daily treatment begun on Day 7 and continued for 7d with test compounds at different doses and 1.3 mpk 6-methlyprednisolone or 0.1 mpk DEX as positive controls. The thickness of both ears are measured on Days 11 and 14. Necropsy occurred on Day 14. The rat is first weighed, then anesthetized in a CO2 chamber until near death. Approximately 5 ml whole blood is obtained by cardiac puncture. The rat is then examined for certain signs of death and completeness. Tissues are dissected in a highly stylized fashion. Then the following endpoints were evaluated: a) inhibiting ear inflammation induced by oxazalone, b) raising serum insulin, c) reducing serum ACTH, d) reducing spleen weight, e) reducing skin thickness, f) reducing body weight, g) increasing expression of bone-related genes with potential relationship to negative glucocorticoid effects on bone; e) changes in molecular markers that correlate with skin inflammation, skin thinning, muscle atrophy and glucose metabolism in liver. All blood samples were collected between 1330-1530 hours, ˜4-5 hrs after the last compound treatment.
Primary data for this assay are left and right ear thickness. Inter-ear thickness difference (etd) is used for the estimating the level of inflammation and effectiveness of the compounds is determined by their ability to reduce the increase the thickness of the inflamed ear. Back of the rat skin thickness, spleen weight, serum insulin as well as the effects of gcs on the expression of molecular markers in skin inflammation, skin atrophy, muscle atrophy and glucose metabolism in liver are measured. Data are analyzed by anova plus fisher plsd post-hoc test to identify intergroup differences.

For series [2], the target named is T1, GR (Homo sapiens, UniProt P04150).
T1 sequence (P04150 1-777): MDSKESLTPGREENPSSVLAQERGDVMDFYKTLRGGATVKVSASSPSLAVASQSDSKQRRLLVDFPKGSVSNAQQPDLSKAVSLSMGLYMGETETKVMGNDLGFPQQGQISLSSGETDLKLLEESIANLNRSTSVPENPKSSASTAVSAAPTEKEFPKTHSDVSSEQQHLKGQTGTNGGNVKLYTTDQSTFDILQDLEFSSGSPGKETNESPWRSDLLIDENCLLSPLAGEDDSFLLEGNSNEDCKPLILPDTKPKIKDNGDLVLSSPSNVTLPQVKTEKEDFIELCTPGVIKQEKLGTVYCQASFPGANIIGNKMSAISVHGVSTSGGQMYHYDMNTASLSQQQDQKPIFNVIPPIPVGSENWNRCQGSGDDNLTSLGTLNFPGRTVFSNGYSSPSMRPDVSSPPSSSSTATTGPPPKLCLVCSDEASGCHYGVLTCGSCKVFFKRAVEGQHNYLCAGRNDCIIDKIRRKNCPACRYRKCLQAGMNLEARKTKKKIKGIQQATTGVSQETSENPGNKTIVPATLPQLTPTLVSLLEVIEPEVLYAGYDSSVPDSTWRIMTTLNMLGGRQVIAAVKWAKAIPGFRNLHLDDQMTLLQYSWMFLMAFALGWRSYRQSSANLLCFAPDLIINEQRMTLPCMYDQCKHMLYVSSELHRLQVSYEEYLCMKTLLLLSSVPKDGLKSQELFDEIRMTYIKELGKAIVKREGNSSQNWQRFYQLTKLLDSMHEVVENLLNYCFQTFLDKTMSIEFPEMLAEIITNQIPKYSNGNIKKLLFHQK
As to the kind of experiment: Trans-Activation Modulation of Glucocorticoid Receptor Assay (GRAMMER), MMTV-LUC reporter, A549 cells. It counts as cell-based. The arrangement: endogenous in cells. An excerpt: Trans-Activation Modulation of Glucocorticoid Receptor Assay
This assay assesses the ability of test compounds to control transcription from the MMTV-LUC reporter gene in lung adenocarcinoma A549 cells or HeLa cells, a human […] cell line that naturally expresses the human GR. The assay measures induction of a modified MMTV LTR/promoter linked to the LUC reporter gene.
The routine transient assay consists of plating 7,000-25,000 cells/well of a white, clear-bottom 96-well plate. Alternatively, 384-well plates can be used at a cell concentration of 10,000/well. The media that the cells are plated in is “exponential growth medium” which consists of phenol red-free RPMI1640 containing 10% FBS, 4 mM L-glutamine, 20 mM HEPES, 10 ug/mL human insulin, and 20 ug/mL gentamicin. Incubator conditions are 37° C. and 5% CO2. The transfection is done in batch mode. The cells are trypsinized and counted to the right cell number in the proper amount of fresh media. It is then gently mixed with the FuGene6/DNA mix and plated onto the 96 or 384-well plate, all the wells receive 100 uL or 40 uL, respectively, of medium+lipid/DNA complex then incubated 37° C. overnight. The transfection cocktail consists of serum-free OptiMEM, FuGene6 reagent and DNA. The manufacturer's (Roche Biochemical) protocol for cocktail setup is as follows: The lipid to DNA ratio is approximately 2.5:1 and the incubation time is 20 min at room temperature. Sixteen to 24 hours after transfection, the cells are treated with dexamethasone to a final concentration of 10 nM as well as the compound of interest, such that final DMSO (vehicle) concentration is equal to or less than 1%. Each plate also contains samples that are treated with 10 nM dexamethasone alone, which is used as the 100% activity control. The cells are exposed to the compounds for 24 hours. After 24 hours, the cells are lysed by a Promega cell culture lysis buffer for approximately 30 min and then the luciferase activity in the extracts is assayed in the 96-well format luminometer. In 384-well format, Steady-Glo (Promega) or Steady-Lite (PerkinElmer) can be used by adding an equal volume of reagent to the media present in each well. […] Antagonist activity is calculated by determining the decrease in dexamethasone-induced activity in response to compound treatment relative to samples that were treated with dexamethasone alone. […] This transactivation assay can be performed in an agonist and antagonist mode to identify these different activities.
The action of compounds is also tested in an antagonist mode (Anti-GRAMMER) in which the cells are treated with medium containing an agonist such as 10 nM DEX and the ability to agents to inhibit the activation by an agonist is measured.

The mark [3] stands for this setting: A549, A549 cells, relative to 300 nM dexamethasone, read-out: Transactivation A549 Cells GRAMMER Emax.
[4] abbreviates: A549 cells, inflection point, read-out: Transactivation A549 Cells GRAMMER IP.
The mark [5] stands for this setting: A549, Table 4, literature compounds, read-out: GRAMMER EMAX.
Where [6] appears, read: Table 4, literature compounds, read-out: GRAMMER IP.

As for `C[C@]12Cc3cnn(-c4ccc(F)cc4)c3C=C1CC[C@@]2(O)CC(O)c1cc(C#N)ccn1` (stereo partly drawn) [Example 9, 2-{2-[(4αS,5R)-1-(4-fluorophenyl)-5-hydroxy-4α-methyl-1,4,4α,5,6,7-hexahydrocyclopenta[f]indazol-5-yl]-1-hydroxyethyl}pyridine-4-carbonitrile], in series [1], the “Inflammation Assay Glucose Effect” value is on record as “+” and the “Inflammation Assay Anti-inflammatory Effect” value was “+ (the anti-inflammatory activity was equal to or greater than 40% of the effect generated by the control compound)”. Also, in series [2] (setting [3]), the Emax (in general, the maximal effect, on the per cent scale that the assay sets) is 27.4%. Also, in series [2] (setting [4]), the pEC50 was 6.80.

Take `C[C@]12Cc3cnn(-c4ccc(F)cc4)c3C=C1CCC[C@@H]2[C@@H](O)c1ccccc1` [Ex. 35 WO 03/86294 A2, reference compound]: the “GL *” value in series [1] (Table 4, literature compounds) is given as “−”. In series [2] (setting [5]), the maximal effect (Emax) was 40.2%. In addition, the pEC50 in series [2] (setting [6]) was 6.71.

Consider `C[C@]12Cc3cnn(-c4ccc(F)cc4)c3C=C1CCC[C@@H]2[C@@H](O)CCc1ccccc1` [Ex. 30 WO 03/086294 A2, reference compound], for which the “GL *” value in series [1] (Table 4, literature compounds) is “−”. Moreover, the Emax in series [2] (A549, read-out: GRAMMER EMAX) came to 48.8%. In addition, in series [2] (GRAMMER IP, Table 4, literature compounds), the pEC50 was 6.78.

On to `C[C@]12Cc3cnn(-c4ccc(F)cc4)c3C=C1CC[C@@]2(O)CC(O)c1ccccn1` (single isomer, unassigned) [Example 2a], for which, in series [1], the “Inflammation Assay Glucose Effect” value is listed as “−” and the “Inflammation Assay Anti-inflammatory Effect” value is “+ (the anti-inflammatory activity was equal to or greater than 40% of the effect generated by the control compound)”. Further, the maximal effect (Emax) in series [2] (setting [3]) was determined as 23.1%. The pEC50 in series [2] (setting [4]) is 6.46.

Take `Cc1cccnc1C(O)C[C@]1(O)CCC2=Cc3c(cnn3-c3ccc(F)cc3)C[C@@]21C` (single isomer, unassigned) [Example 1b]: the “Inflammation Assay Glucose Effect” value in series [1] was “+”. Moreover, in series [2] (setting [4]), the pEC50 was 6.63. Further, the “Transactivation A549 Cells GRAMMER Emax” value in series [2] (A549 cells, relative to 300 nM dexamethasone) is 27.4%.

As to `CO[C@@]1(CCc2ccccc2Cl)CCC2=Cc3c(cnn3-c3ccc(F)cc3)C[C@@]21C` [Ex. 103 WO 04/075840 A2, reference compound], the “AI*” value in series [1] (Table 4, literature compounds, anti-inflammatory effect) is “+ (the anti-inflammatory activity was equal to or greater than 40% of the effect generated by the control compound)”. Further, the “GL *” value in series [1] (Table 4, literature compounds) is given as “+”. For the same compound, the maximal effect (Emax) in series [2] (setting [5]) turned out to be 115%. The pEC50 in series [2] (setting [6]) is 6.79.

Source of the values: patent US20120214846A1, “HEXAHYDROCYCLOPENTYL[F]INDAZOLE PYRIDYL ETHANOLS AND DERIVATIVES THEREOF AS SELECTIVE GLUCOCORTICOID RECEPTOR MODULATORS” (MERCK SHARP & DOHME CORP, priority 2009, published 2012).
